Patent US10576062B2, “Carbamoyloxymethyl triazole cyclohexyl acids as LPA antagonists” (Bristol-Myers Squibb Company, priority 2016, dated 2020)
pIC50: −log10 of the molar value.

Biological target: T1, human LPA1 (Homo sapiens, UniProt Q92633)
T1 construct: expressed in transfected cells; host or cells: Chinese hamster ovary (CHO) cells
Assay: LPA1 functional antagonist assay (LPA-induced calcium flux)
Format: cell-based
Settings: read-out: hLPA1 IC50
Procedure, shortened: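 CHO cells overexpressing human LPA1, loaded with calcium dye 30 min at 37° C, were preincubated 20 min at room temperature with compound (0.08 nM–5 μM, 0.5% DMSO) in HBSS/20 mM HEPES/0.1% fatty acid-free BSA.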

T1 sequence (Q92633 whole entry): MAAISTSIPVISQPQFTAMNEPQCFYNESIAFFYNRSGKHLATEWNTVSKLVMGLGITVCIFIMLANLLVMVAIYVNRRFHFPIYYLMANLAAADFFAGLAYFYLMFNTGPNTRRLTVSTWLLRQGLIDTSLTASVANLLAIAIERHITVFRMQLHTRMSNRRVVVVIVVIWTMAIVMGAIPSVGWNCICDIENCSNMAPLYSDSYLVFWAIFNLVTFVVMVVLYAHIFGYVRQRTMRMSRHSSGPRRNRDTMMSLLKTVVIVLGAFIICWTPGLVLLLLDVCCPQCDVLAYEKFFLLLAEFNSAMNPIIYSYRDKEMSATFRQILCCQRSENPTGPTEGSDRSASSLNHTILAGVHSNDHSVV

SMILES | pIC50
[2H]C([2H])([2H])n1nnc(-c2ccc(O[C@H]3CCC[C@H](C(=O)O)C3)cn2)c1COC(=O)N(C)CC1CCC1 [Example 82, (1S,3S)-3-((6-(5-((((cyclobutylmethyl)(methyl)carbamoyl)oxy)methyl)-1-(methyl-d3)-1H-1,2,3-triazol-4-yl)pyridin-3-yl)oxy)cyclohexane-1-carboxylic acid] | 7.55
CCC(CC)N(C)C(=O)OCc1c(-c2ccc(O[C@H]3CCC[C@H](C(=O)O)C3)c(C)n2)nnn1C [Example 83, (1S,3S)-3-((2-Methyl-6-(1-methyl-5-(((methyl(pentan-3-yl)carbamoyl)oxy)methyl)-1H-1,2,3-triazol-4-yl)pyridin-3-yl)oxy)cyclohexanecarboxylic acid] | 7.04
CCCC(C)(C)N(C)C(=O)OCc1c(-c2ccc(O[C@H]3CCC[C@H](C(=O)O)C3)c(C)n2)nnn1C [Example 84, (1S,3S)-3-((2-methyl-6-(1-methyl-5-(((methyl(2-methylpentan-2-yl)carbamoyl)oxy)methyl)-1H-1,2,3-triazol-4-yl)pyridin-3-yl)oxy)cyclohexanecarboxylic acid] | 7.16
Cc1nc(-c2nnn(C)c2COC(=O)N(C)C2(C)CC2)ccc1O[C@H]1CCC[C@H](C(=O)O)C1 [Example 85, (1S,3S)-3-((2-methyl-6-(1-methyl-5-(((methyl(1-methylcyclopropyl)carbamoyl)oxy)methyl)-1H-1,2,3-triazol-4-yl)pyridin-3-yl)oxy)cyclohexane-1-carboxylic acid] | 7.24
Cc1nc(-c2nnn(C)c2COC(=O)N(C)C(C2CC2)C2CC2)ccc1O[C@H]1CCC[C@H](C(=O)O)C1 [Example 86, (1S,3S)-3-((6-(5-((((Dicyclopropylmethyl)(methyl)carbamoyl)oxy)methyl)-1-methyl-1H-1,2,3-triazol-4-yl)-2-methylpyridin-3-yl)oxy)cyclohexanecarboxylic acid] | 7.27
CCCC1(N(C)C(=O)OCc2c(-c3ccc(O[C@H]4CCC[C@H](C(=O)O)C4)c(C)n3)nnn2C)CC1 [Example 87, (1S,3S)-3-((2-methyl-6-(1-methyl-5-(((methyl(1-propylcyclopropyl)carbamoyl)oxy)methyl)-1H-1,2,3-triazol-4-yl)pyridin-3-yl)oxy)cyclohexane-1-carboxylic acid] | 7.44
CC(OC(=O)N(C)C1CCCC1)c1c(-c2ccc(O[C@H]3CCC[C@H](C(=O)O)C3)cc2)nnn1C (stereo partly drawn) [Example 94, (1S,3S)-3-(4-(5-(1-((cyclopentyl(methyl)carbamoyl)oxy)ethyl)-1-methyl-1H-1,2,3-triazol-4-yl)phenoxy)cyclohexane-1-carboxylic acid] | 6.62
Cc1nc(-c2nnn(C)c2COC(=O)N(C)Cc2ccccc2F)ccc1O[C@H]1CCC[C@H](C(=O)O)C1 [Example 98, (1S,3S)-3-((6-(5-((((2-fluorobenzyl)(methyl)carbamoyl)oxy)methyl)-1-methyl-1H-1,2,3-triazol-4-yl)-2-methylpyridin-3-yl)oxy)cyclohexane-1-carboxylic acid] | 7.72
Cc1nc(-c2nnn(C)c2COC(=O)N(C)C2(c3ccccc3)CC2)ccc1O[C@H]1CCC[C@H](C(=O)O)C1 [Example 100, (1S,3S)-3-((2-methyl-6-(1-methyl-5-(((methyl(1-phenylcyclopropyl)carbamoyl)oxy)methyl)-1H-1,2,3-triazol-4-yl)pyridin-3-yl)oxy)cyclohexane-1-carboxylic acid] | 7.15
Cc1nc(-c2nnn(C)c2COC(=O)N(C)CCC(F)(F)F)ccc1O[C@H]1CCC[C@H](C(=O)O)C1 [Example 101, (1S,3S)-3-((2-methyl-6-(1-methyl-5-(((methyl(3,3,3-trifluoropropyl)carbamoyl)oxy)methyl)-1H-1,2,3-triazol-4-yl)pyridin-3-yl)oxy)cyclohexane-1-carboxylic acid] | 7.31

The next lines start with the values.

pIC50 | SMILES
7.28 | Cc1nc(-c2nnn(C)c2COC(=O)N(C)C23CC(C2)C3)ccc1O[C@H]1CCC[C@H](C(=O)O)C1 [Example 102, (1S,3S)-3-((6-(5-(((bicyclo[1.1.1]pentan-1-yl(methyl)carbamoyl)oxy)methyl)-1-methyl-1H-1,2,3-triazol-4-yl)-2-methylpyridin-3-yl)oxy)cyclohexane-1-carboxylic acid]
6.92 | Cc1nc(-c2nnn(C)c2COC(=O)N(C)CCc2ccccc2)ccc1O[C@H]1CCC[C@H](C(=O)O)C1 [Example 103, (1S,3S)-3-((2-methyl-6-(1-methyl-5-(((methyl(phenethyl)carbamoyl)oxy)methyl)-1H-1,2,3-triazol-4-yl)pyridin-3-yl)oxy)cyclohexane-1-carboxylic acid]
7.72 | CCCN(C)C(=O)OCc1c(-c2ccc(O[C@H]3CCC[C@H](C(=O)O)C3)c(C)n2)nnn1C [Example 104, (1S,3S)-3-((2-methyl-6-(1-methyl-5-(((methyl(propyl)carbamoyl)oxy)methyl)-1H-1,2,3-triazol-4-yl)pyridin-3-yl)oxy)cyclohexane-1-carboxylic acid]
6.24 | Cc1nc(-c2nnn(C)c2COC(=O)NC23CC(C2)C3)ccc1O[C@H]1CCC[C@H](C(=O)O)C1 [Example 105, (1S,3S)-3-((6-(5-(((bicyclo[1.1.1]pentan-1-ylcarbamoyl)oxy)methyl)-1-methyl-1H-1,2,3-triazol-4-yl)-2-methylpyridin-3-yl)oxy)cyclohexane-1-carboxylic acid]
6.97 | Cc1nc(-c2nnn(C)c2COC(=O)NCC2CCC2)ccc1O[C@H]1CCC[C@H](C(=O)O)C1 [Example 108, (1S,3S)-3-((6-(5-((((cyclobutylmethyl)carbamoyl)oxy)methyl)-1-methyl-1H-1,2,3-triazol-4-yl)-2-methylpyridin-3-yl)oxy)cyclohexane-1-carboxylic acid]
7.51 | [2H]C([2H])([2H])n1nnc(-c2ccc(O[C@H]3CCC[C@H](C(=O)O)C3)cn2)c1COC(=O)N(C)CC1CC1 [Example 110, (1S,3S)-3-((6-(5-((((cyclopropylmethyl)(methyl)carbamoyl)oxy)methyl)-1-(methyl-d3)-1H-1,2,3-triazol-4-yl)pyridin-3-yl)oxy)cyclohexane-1-carboxylic acid]
7.64 | [2H]C([2H])([2H])n1nnc(-c2ccc(O[C@H]3CCC[C@H](C(=O)O)C3)cn2)c1COC(=O)N(C)C1CCCC1 [Example 111, (1S,3S)-3-((6-(5-(((cyclopentyl(methyl)carbamoyl)oxy)methyl)-1-(methyl-d3)-1H-1,2,3-triazol-4-yl)pyridin-3-yl)oxy)cyclohexane-1-carboxylic acid]
7.77 | [2H]C([2H])([2H])n1nnc(-c2ccc(O[C@H]3CCC[C@H](C(=O)O)C3)cn2)c1COC(=O)N(C)CCCC [Example 112, (1S,3S)-3-((6-(5-(((butyl(methyl)carbamoyl)oxy)methyl)-1-(methyl-d3)-1H-1,2,3-triazol-4-yl)pyridin-3-yl)oxy)cyclohexane-1-carboxylic acid]
7.82 | CCN(CC1CCC1)C(=O)OCc1c(-c2ccc(O[C@H]3CCC[C@H](C(=O)O)C3)c(C)n2)nnn1C [Example 113, (1S,3S)-3-((6-(5-((((cyclobutylmethyl)(ethyl)carbamoyl)oxy)methyl)-1-methyl-1H-1,2,3-triazol-4-yl)-2-methylpyridin-3-yl)oxy)cyclohexane-1-carboxylic acid]
